Results reported in US20150258107A1, “METHODS AND COMPOSITIONS FOR TREATING DEPRESSION” (DemeRx, Inc., priority 2014, published 2015).
Entries after “also recorded” stand apart in the source; their conditions may differ.

How the values were obtained:
[1] = tested on: opioid-dependent participants; assay: Time to resumption of opioid substitution treatment (OST) and opiate withdrawal scales; type: in vivo, human
Procedure: (§1) Three cohorts of nine (9) subjects (6 administered noribogaine and 3 administered placebo in each cohort) were evaluated for tolerability, pharmacokinetics, and efficacy. Cohort 1 received a single dose of 60 mg noribogaine or placebo. Cohort 2 received a single dose of 120 mg noribogaine or placebo. Cohort 3 received a single dose of 180 mg noribogaine or placebo. […] Headaches were frequent in the placebo and 60 mg noribogaine treatment groups, but were attenuated in the 120 mg and 180 mg dose groups.
Patients were evaluated based on the Clinical Opiate Withdrawal Scale (COWS), Subjective Opiate Withdrawal Scale (SOWS), and Objective Opiate Withdrawal Scale (OOWS) scoring systems over the period of time between administration of noribogaine (or placebo) until resumption of OST. These scales are outlined in Guidelines for the Psychosocially Assisted Pharmacological Treatment of Opioid Dependence, World Health Organization, Geneva (2009), Annex 10, which is incorporated herein by reference in its entirety. The scales measure the intensity of withdrawal symptoms, based on clinical, subjective, and objective indicia.

[2] = Pharmacokinetics in opioid-dependent patients (Phase IB study); type: in vivo, human; details: 60, 120, 180 mg
Procedure: as §1

[3] = Human pharmacokinetic study, single oral tablet, fasting healthy volunteers (serum levels); type: in vivo; details: fasting; for Cmax: human, serum, oral
Procedure: In double blind studies, fasting healthy volunteers (6 per cohort) were treated once orally with a tablet of noribogaine HCl. In escalating cohorts, the volunteers received 3 mg, 10 mg, 30 mg or 60 mg noribogaine.

[4] = tested on: healthy, drug-free male volunteers; assay: Cold pressor test in healthy volunteers; type: in vivo, human; details: 3, 10, 30, 60 mg single oral dose; hand immersion duration and VAS pain scores
Procedure: Analgesic effect was assessed based on duration of hand immersion in ice water and on visual analog scale (VAS) pain scores upon hand removal from the water bath.
(§2) Safety and tolerability of noribogaine were tested in the group of volunteers from Example 9. […] Safety evaluations included clinical monitoring, recording of adverse events (AEs), safety laboratory tests, vital signs, ECG telemetry from −2 h to 6 h after dosing, and 12-lead electrocardiograms (ECGs) up to 216 hours post-dosing.

[5] = tested on: healthy, drug-free male volunteers; assay: Safety and tolerability of noribogaine in healthy volunteers; type: in vivo, human
Procedure: as §2

[6] = Pharmacokinetics of noribogaine in healthy male volunteers (plasma and urine, LCMSMS); details: for CL/F / AUC0-216 / AUC0-∞ / Cmax / Tmax / T½: mean (SD); for AUC0-216 / AUC0-∞ / Cmax / Tmax / T½: plasma
[7] = tested on: opioid-dependent participants; assay: Treatment emergent adverse events in opioid-dependent participants; type: in vivo, human
Procedure: The efficacy of noribogaine in humans was evaluated in opioid-dependent participants in a randomized, placebo-controlled, double-blind trial. […] See U.S. application Ser. No. 14/214,157, filed Mar. 14, 2014 and Ser. No. 14/346,655, filed Mar. 21, 2014, which are incorporated herein by reference in their entireties.
as §1

CC[C@H]1CC2C[C@H]3c4[nH]c5ccc(O)cc5c4CCN(C2)C13 [noribogaine]
Withdrawal symptoms (COWS, OOWS, SOWS, first six hours) ([1]; 120 mg): generally experienced fewer withdrawal symptoms than the other patients | Average time to resumption of opioids ([1]; single 120 mg dose): greater than 20 hours | Dose dependence of maximum serum concentration (Cmax) [2]: increased in a dose-dependent manner | Cmax ([3]; single dose of 3 mg): 5.2 ng/mL | Cmax ([3]; single dose of 10 mg): 14.5 ng/mL | Cmax ([3]; single dose of 30 mg): 55.9 ng/mL | Cmax ([3]; single dose of 60 mg): 116 ng/mL | mean AUC/24 hr ([3]; single dose of 3 mg): 3.1 ng/mL | mean AUC/24 hr ([3]; single dose of 10 mg): 10.6 ng/mL | mean AUC/24 ([3]; single dose of 30 mg): 29.2 ng/mL | mean AUC/24 ([3]; single dose of 60 mg): 61 ng/mL | Analgesic effect in the cold pressor test [4]: no analgesic effect | Adverse events reported ([5]; 3 mg dose group): five adverse events were reported by two subjects | Adverse events reported ([5]; 10 mg dose group): one adverse event was reported by single subjects | Single increase in QTcF (one subject) ([5]; 10 mg, 24 hours post-dosing): > 60 ms | Adverse events reported ([5]; 30 mg dose group): one adverse event was reported by single subjects | Oximetry, capnography, respiratory rate ([5]; 3-60 mg single oral dose): no changes in oximetry or capnography, or changes in respiratory rate | QTcF values >500 msec ([5]; 3-60 mg single oral dose): no QTcF values>500 msec at any time | Vital signs and safety laboratory tests ([5]; 3-60 mg single oral dose): no changes in vital signs or safety laboratory tests of note | Adverse events, Mild ([5]; Dose 3 mg): Back pain; also recorded: Dizziness; also recorded: Epistaxis; also recorded: Headache | Adverse events, Moderate ([5]; Dose 3 mg): Headache | Adverse events, Mild ([5]; Dose 10 mg): Headache | Adverse events, Mild ([5]; Dose 30 mg): Headache | CL/F ([6]; 3 mg (n = 6)): 41.4 (7.0) L/h | AUC0-216 ([6]; 3 mg (n = 6)): 72.2 (13.2) ng · hr/ml | AUC0-∞ ([6]; 3 mg (n = 6)): 74.2 (13.1) ng · hr/ml | Cmax ([6]; 3 mg (n = 6)): 5.2 (1.4) ng/ml | Tmax ([6]; 3 mg (n = 6)): 1.9 (0.6) hr | T½ ([6]; 3 mg (n = 6)): 40.9 (8.7) hr | CL/F ([6]; 10 mg (n = 6)): 42.3 (12.0) L/h | AUC0-216 ([6]; 10 mg (n = 6)): 251.4 (78.5) ng · hr/ml | AUC0-∞ ([6]; 10 mg (n = 6)): 254.5 (78.9) ng · hr/ml | Cmax ([6]; 10 mg (n = 6)): 14.5 (2.1) ng/ml | Tmax ([6]; 10 mg (n = 6)): 2.9 (1.8) hr | T½ ([6]; 10 mg (n = 6)): 49.2 (11.5) hr | CL/F ([6]; 30 mg (n = 6)): 46.9 (16.4) L/h | AUC0-216 ([6]; 30 mg (n = 6)): 677.6 (221.1) ng · hr/ml | AUC0-∞ ([6]; 30 mg (n = 6)): 700.4 (223.3) ng · hr/ml | Cmax ([6]; 30 mg (n = 6)): 55.9 (14.8) ng/ml | Tmax ([6]; 30 mg (n = 6)): 1.8 (0.6) hr | T½ ([6]; 30 mg (n = 6)): 27.6 (7.0)) hr | CL/F ([6]; 60 mg (n = 6)): 34.0 (11.4) L/h | AUC0-216 ([6]; 60 mg (n = 6)): 1935.4 (725.4) ng · hr/ml | AUC0-∞ ([6]; 60 mg (n = 6)): 1962.2 (726.5) ng · hr/ml | Cmax ([6]; 60 mg (n = 6)): 116.0 (22.5) ng/ml | Tmax ([6]; 60 mg (n = 6)): 2.4 (0.6) hr | T½ ([6]; 60 mg (n = 6)): 29.1 (9.3) hr | Dose proportionality of Cmax and AUC ([6]; 3-60 mg): Both Cmax and AUC increased linearly with dose | Mean half-life estimates ([6]; across dose groups): 28 to 50 h | Volume of distribution ([6]; across dose groups): 1417 to 3086 L | Time of peak concentrations after oral dosing ([6]; across dose groups 3-60 mg): 2 to 3 h | TEAE: Catheter Site Infection ([7]; 60 mg (N = 6)): 0 | TEAE: Catheter Site Pain ([7]; 60 mg (N = 6)): 0 | TEAE: Catheter Site Related Reaction ([7]; 60 mg (N = 6)): 0 | TEAE: Cellulitis ([7]; 60 mg (N = 6)): 0 | TEAE: Diarrhoea ([7]; 60 mg (N = 6)): 0 | TEAE: Dry Mouth ([7]; 60 mg (N = 6)): 0 | TEAE: Ear and Labyrinth Disorders ([7]; 60 mg (N = 6)): 0 | TEAE: Epistaxis ([7]; 60 mg (N = 6)): 0 | TEAE: Euphoric Mood ([7]; 60 mg (N = 6)): 0 | TEAE: General Disorders and Administration Site Conditions ([7]; 60 mg (N = 6)): 0 | TEAE: Hyperaesthesia ([7]; 60 mg (N = 6)): 0 | TEAE: Infections and Infestations ([7]; 60 mg (N = 6)): 0 | TEAE: Limb Discomfort ([7]; 60 mg (N = 6)): 0 | TEAE: Malaise ([7]; 60 mg (N = 6)): 0 | TEAE: Nausea ([7]; 60 mg (N = 6)): 0 | TEAE: Oropharyngeal Pain ([7]; 60 mg (N = 6)): 0 | TEAE: Pseudoparalysis ([7]; 60 mg (N = 6)): 0 | TEAE: Respiratory, Thoracic and Mediastinal Disorders ([7]; 60 mg (N = 6)): 0 | TEAE: Rhinorrhoea ([7]; 60 mg (N = 6)): 0 | TEAE: Skin Discomfort ([7]; 60 mg (N = 6)): 0 | TEAE: Skin Irritation ([7]; 60 mg (N = 6)): 0 | TEAE: Skin and Subcutaneous Tissue Disorders ([7]; 60 mg (N = 6)): 0 | TEAE: Somnoience ([7]; 60 mg (N = 6)): 0 | TEAE: Tinnitus ([7]; 60 mg (N = 6)): 0 | TEAE: Tremor ([7]; 60 mg (N = 6)): 0 | TEAE: Urinary Tract Infection ([7]; 60 mg (N = 6)): 0 | TEAE: Vomiting ([7]; 60 mg (N = 6)): 0 | TEAE: Back Pain ([7]; 120 mg (N = 6)): 0 | TEAE: Catheter Site Infection ([7]; 120 mg (N = 6)): 0 | TEAE: Catheter Site Related Reaction ([7]; 120 mg (N = 6)): 0 | TEAE: Depressed Mood ([7]; 120 mg (N = 6)): 0 | TEAE: Dry Eye ([7]; 120 mg (N = 6)): 0 | TEAE: Dyspepsia ([7]; 120 mg (N = 6)): 0 | TEAE: Euphoric Mood ([7]; 120 mg (N = 6)): 0 | TEAE: Limb Discomfort ([7]; 120 mg (N = 6)): 0 | TEAE: Malaise ([7]; 120 mg (N = 6)): 0 | TEAE: Musculoskeletal and Connective Tissue Disorders ([7]; 120 mg (N = 6)): 0 | TEAE: Psychiatric Disorders ([7]; 120 mg (N = 6)): 0 | TEAE: Somnoience ([7]; 120 mg (N = 6)): 0 | TEAE: Urinary Tract Infection ([7]; 120 mg (N = 6)): 0 | TEAE: Catheter Site Infection ([7]; 180 mg (N = 6)): 0 | TEAE: Catheter Site Pain ([7]; 180 mg (N = 6)): 0 | TEAE: Depressed Mood ([7]; 180 mg (N = 6)): 0 | TEAE: Diarrhoea ([7]; 180 mg (N = 6)): 0 | TEAE: Dry Eye ([7]; 180 mg (N = 6)): 0 | TEAE: Dyspepsia ([7]; 180 mg (N = 6)): 0 | TEAE: Ear and Labyrinth Disorders ([7]; 180 mg (N = 6)): 0 | TEAE: Epistaxis ([7]; 180 mg (N = 6)): 0 | TEAE: Euphoric Mood ([7]; 180 mg (N = 6)): 0 | TEAE: Hyperaesthesia ([7]; 180 mg (N = 6)): 0 | TEAE: Malaise ([7]; 180 mg (N = 6)): 0 | TEAE: Pseudoparalysis ([7]; 180 mg (N = 6)): 0 | TEAE: Psychiatric Disorders ([7]; 180 mg (N = 6)): 0 | TEAE: Respiratory, Thoracic and Mediastinal Disorders ([7]; 180 mg (N = 6)): 0 | TEAE: Rhinorrhoea ([7]; 180 mg (N = 6)): 0 | TEAE: Skin Discomfort ([7]; 180 mg (N = 6)): 0 | TEAE: Skin Irritation ([7]; 180 mg (N = 6)): 0 | TEAE: Skin and Subcutaneous Tissue Disorders ([7]; 180 mg (N = 6)): 0 | TEAE: Somnoience ([7]; 180 mg (N = 6)): 0 | TEAE: Tinnitus ([7]; 180 mg (N = 6)): 0 | TEAE: Tremor ([7]; 180 mg (N = 6)): 0 | Adverse effects incl. hallucinatory effects ([7]; single dose 60, 120 or 180 mg): Few adverse effects of noribogaine were observed in any of the participants, including no hallucinatory effects
